# Experiment: Inhibition of [3H]spiperone binding to Dopamine receptor D3 in bovine cortex
smiles,measurement,value
O=C1CC2(CCCC2)CC(=O)N1CCCCN1CCN(c2ncccn2)CC1 [BUSPAR],Ki,660 nM

# Source: BindingDB's records for doi:10.1021/jm950759z (Cooperation Pharmaceutique Fran?aise, 1997)
